{"source": "patent US6288110A", "about": "“Pharmaceutical compositions comprising disulfiram” (Yeda Research and Development Co Ltd., priority 1998, dated 2001)", "key": {"interleukin-1": {"system": "interleukin-1", "conditions": "U.S. Pat. No. 4,870,101; cited from earlier work"}, "[1]": {"system": "Sarcoma 180, EL-4 leukemia or L1210 murine leukemia", "conditions": "cited from earlier work"}, "[2]": {"system": "ifosfamide- and cyclophosphamide-induced urotoxicity", "conditions": "administered simultaneously with ifosfamide or cyclophosphamide, mice; cited from earlier work"}, "other tissues": {"system": "other tissues", "assay": "Tissue damage on systemic administration", "conditions": "25-60 μg/mouse systemically"}, "[3]": {"system": "transmammary carcinogenesis", "conditions": "7,12-dimethylbenz(a)anthracene, mice; cited from earlier work"}, "[4]": {"system": "Lewis lung carcinoma (D122) metastasis in the lungs", "assay": "Lewis lung carcinoma metastasis, footpad model", "assay_type": "in vivo, C57/BL mice", "excerpt": "The Lewis lung carcinoma (3LL), which originated spontaneously in a C57/BL/6J (H-2^b) mouse, is a malignant tumor that produces spontaneous lung metastases. The metastatic clone D122, kindly provided by Prof. Lea Eisenbach (Weizmann Institute of Science, Rehovot, Israel), was used herein for tissue culture and for in vivo experiments. The cell cultures were maintained in DMEM supplemented with 10% heat-inactivated FCS, glutamine, antibiotics, sodium pyruvate and nonessential amino acids.\nTwo metastasis models were used: 1. The footpad model. 2. The i.v. model. The assay of tumor development in the footpad model and evaluation of lung metastases was done as previously described (Eisenbach, 1983). Briefly, eight mice in each experimental group were inoculated with 2×10^5 D122 cells in 0.05 ml PBS in the right hind footpad. Three days following tumor cells injection, mice were treated per os by disulfiram or saline 3 times per week. The tumors became palpable within 11-19 days. Local tumor growth was determined by measuring the footpad diameter with a calipers. At 26-40 days following inoculation, when local tumor reached a diameter of 6-7 mm, mice were anesthetized with a single dose of 75 mg/kg ketamine+3 mg/kg xylazine (i.p.) and the tumor-bearing leg was removed by amputation above the knee joint. To measure progress of metatases the mice were killed 24 days following amputation by injecting 20 mg/mouse xylazine i.p. and lungs were weighed.\nTwenty-four days following the removal of the tumor-bearing leg, lungs were weighed."}, "dopamine-β-hydroxylases": {"system": "dopamine-β-hydroxylases", "conditions": "cited from earlier work"}, "bladder cancer": {"system": "bladder cancer", "conditions": "N-butyl-N-(4-hydroxybutyl)nitrosamine or N-butyl-N-(3-carboxypropyl)nitrosamine, rats; cited from earlier work"}, "aldolases": {"system": "aldolases", "conditions": "cited from earlier work"}, "oxidases": {"system": "oxidases", "conditions": "cited from earlier work"}, "BALB/MK keratinocytes": {"system": "BALB/MK keratinocytes", "assay": "TUNEL assay for apoptosis, BALB/MK keratinocytes", "assay_type": "cell-based, murine", "conditions": "5 μM", "method": "Cells were cultured on microscope slides for 48 hours in presence of growth media as described above, until reaching 40-50% confluency. […] Apoptosis was analyzed by the in situ TUNEL staining carried out as described (Wride, 1994). Briefly, microscope slides were incubated for 15 min in 2×SSC buffer at 60° C., washed in DDW and incubated with 20 μg/ml proteinase K (Boehringer Mannheim) for 15 min at room temperature. After a wash with DDW, endogenous peroxidases were inactivated by incubating the slides with 2% H2 O2 in PBST (PBS with 0.05% Tween 20) for 10 min at room temperature. Slides were then incubated in TdT buffer (Boehringer Mannheim) for 5 min at room temperature, and a reaction mixture containing 5×TdT buffer and 1 μl biotin-21-dUTP (Clontech, 1 mM stock) and 8 units of the TdT enzyme (Boehringer Mannheim) in total volume of 50 μl was subsequently added. The reactions were carried out at 37° C. for 1.5 hr in a humid chamber. The slides were washed in 2×SSC, DDW and finally with PBS and covered with 10% skim milk in PBST for 15 min. After removal of the skim milk, the sections were incubated with ABC solution from ABC kit (Vector Laboratories, Inc.) for 30 min at room temperature, washed with PBS and stained using AEC procedure (Sigma) The slides were then washed ×3 in DDW and stained with haematoxylin for 30 sec and mounted by Kaiser's glycerol gelatin (Merck). […]"}, "3T3 fibroblasts": {"system": "3T3 fibroblasts", "assay": "Cell rounding, 3T3 fibroblasts", "assay_type": "cell-based", "conditions": "1 μM"}}, "data": [{"smiles": "CCN(CC)C(=S)SSC(=S)N(CC)CC", "note": "[disulfiram, Bis(diethylthiocarbamoyl) disulfide]", "values": [{"measurement": "inhibition of interleukin-1 release", "setting": "interleukin-1", "value": "effective to inhibit the release of interleukin-1"}, {"measurement": "effect on anti-tumor activity of ifosfamide and cyclophosphamide", "setting": "[1]", "value": "without compromising their anti-tumor activity"}, {"measurement": "protection against urotoxicity", "setting": "[2]", "value": "protect mice"}, {"measurement": "damage in other tissues", "setting": "other tissues", "value": "no evidence for damage in other tissues"}, {"measurement": "inhibition of transmammary carcinogenesis", "setting": "[3]", "value": "inhibit transmammary carcinogenesis"}, {"measurement": "metastasis on the lungs compared with water-fed control (in words)", "setting": "[4]; 30 μg, 3 times a week, 24 days, n=6, p=0.005", "value": "significantly smaller"}, {"measurement": "lowering of the metastatic load in the lungs", "setting": "[4]; 30 μg/mouse, 24 days following removal of tumor-bearing leg", "value": "~10", "unit": "fold"}, {"measurement": "decrease in the metastatic load in the lungs (in words)", "setting": "[4]; 120 μg/mouse (not shown)", "value": "only slight decrease"}, {"measurement": "deaths of disulfiram-treated mice", "setting": "[4]; by 24th day following leg removal, control 50% died", "value": "no disulfiram-treated mice died"}, {"measurement": "mice with no metastases at all", "setting": "[4]; disulfiram-treated group", "value": "two out of six"}, {"measurement": "inhibition of dopamine-β-hydroxylases", "setting": "dopamine-β-hydroxylases", "value": "inhibit"}, {"measurement": "interference with induction of bladder cancer", "setting": "bladder cancer", "value": "interfere with induction of cancer"}, {"measurement": "inhibition of aldolases", "setting": "aldolases", "value": "inhibit"}, {"measurement": "inhibition of oxidases", "setting": "oxidases", "value": "inhibit"}, {"measurement": "apoptosis by TUNEL method", "setting": "BALB/MK keratinocytes", "value": "did not induce"}, {"measurement": "cell rounding", "setting": "3T3 fibroblasts", "value": "did not change their shape to the rounded form"}]}]}
